Key:
protein carbonyls = assay: Protein carbonyl analysis (slot blot, 2,4-DNP) of whole brain homogenate after controlled cortical contusion; type: in vivo, C57BL/6NHsd mice; details: for Protein carbonyl: difference compared to control (sham): whole brain homogenate
Procedure: (§1) Twenty C57BL/6NHsd mice were used for a study. Mice were set into five groups: sham, 15 minutes saline, 15 minutes gallium, 30 minutes gallium, and 30 minutes saline. A moderate controlled cortical contusion was given to all animals except the four animals in the sham group. The 15 minutes gallium group was injected with 10 mg/kg gallium nitrate at 15 minutes post injury. The 15 minutes saline group was injected with saline at 15 minutes post injury. The 30 minutes gallium group was injected with 10 mg/kg gallium nitrate at 30 minutes post injury. The 30 minutes saline group was injected with saline at 30 minutes post injury. A sample size of 4 was used for each group except gallium nitrate treated samples at 15 minutes post injury (n=3), gallium nitrate treated samples at 30 minutes post injury (n=5), and saline treated animals at 30 minutes (n=3).
(§2) A gallium compound was delivered by injection, in particular, intraperitoneal injection. […] Due to this unequal pairing, statistics (Student's t-test) were performed using unpaired analysis. P values <0.05 were deemed significant. Western blots (slot blots) were run for all samples and immunoblotting was performed with the following antibodies 2,4-DNP (protein carbonyls) and anti-3-nitrotyrosine (protein nitration). All blots were run twice for reproducibility. All samples were compared to sham (craniotomy only, but no injury), which has been used as a baseline (control).
(§3) The two parameters for oxidative stress were run on whole brain homogenate using immunochemical detection.

[1] = 100-300 mg/m²/day over 5-7 days; cited from earlier work
3-nitrotyrosine (3-NT) = assay: Protein nitration analysis (slot blot, anti-3-nitrotyrosine) of whole brain homogenate after controlled cortical contusion; type: in vivo, C57BL/6NHsd mice; details: for Protein nitration (3-NT): difference compared to control (sham): whole brain homogenate
Procedure: as §1, §2, §3
Protein nitration is determined by indexing levels of 3-nitrotyrosine (3-NT). […] The difference between saline groups and the gallium groups at 30 minutes was statistically significant.

[2] = 10 mg/kg intraperitoneal injection at 15 minutes post injury
[3] = 10 mg/kg intraperitoneal injection at 30 minutes post injury

O=[N+]([O-])[O-].O=[N+]([O-])[O-].O=[N+]([O-])[O-].[Ga+3] [Gallium nitrate, gallium nitrate]
Protein carbonyl: difference compared to control (sham) (protein carbonyls; [2]): 17.5% reduction
Protein carbonyl: difference compared to control (sham) (protein carbonyls; [3]): 6.6% reduction
Oxidative stress (protein carbonyls), result in words (protein carbonyls; both time points (15 and 30 minutes post injury)): reduction in oxidative stress
Reduction of calcium excretion [1]: 70+18%
Protein nitration (3-NT): difference compared to control (sham) (3-nitrotyrosine (3-NT); [2]): 61.3% increase
Protein nitration (3-NT): difference compared to control (sham) (3-nitrotyrosine (3-NT); [3]): 18.1% increase
Levels of 3-NT, result in words (3-nitrotyrosine (3-NT); treatment at 15 minutes post injury): increase in the levels of 3-NT
Levels of 3-NT, result in words (3-nitrotyrosine (3-NT); treatment at 30 minutes post injury, difference to saline group statistically significant): significant reduction in the levels of 3-NT

Source: patent US9205108B2, “Treatment of traumatic brain injury by using gallium compounds to reduce oxidative stress levels” (priority 2012, dated 2015)
